The values that follow come from article PMC10781839 (European Journal of Drug Metabolism and Pharmacokinetics, 2023).

One data set relates to CYP3A. Conditions: for Midazolam/1-OH-midazolam AUC2–4 h ratio: pantoprazole group.
Data set [1] has as its system CYP2D6. Conditions: cited from earlier work.
For data set [2] the following is noted: cited from earlier work.
For data set [3], the system named is CYP2D6. Conditions: single 400 mg HCQ, short term, yohimbine probe.
The subject of data set [4] is CYP2D6. Conditions: cited from earlier work. The source holds these as a separate data set.
The subject of another data set is CYP3A4. Conditions: cited from earlier work; for CYP3A4 inhibition in vitro: HCQ metabolites.
The conditions of data set [5]: cited from earlier work. This is another data set of the same source.
For data set [6] the following is noted: cited from earlier work; for Peak serum concentration: pantoprazole 40 mg.
The target in another data set is recombinant human CYP3A4 (Homo sapiens, UniProt P08684). The data set can be described thus: P450-Glo CYP3A4 Assay, inhibition by pantoprazole. Conditions: pantoprazole 100 µM, in vitro. The data set is classed as in vitro ADME.
Chain of recombinant human CYP3A4 (P08684 whole entry): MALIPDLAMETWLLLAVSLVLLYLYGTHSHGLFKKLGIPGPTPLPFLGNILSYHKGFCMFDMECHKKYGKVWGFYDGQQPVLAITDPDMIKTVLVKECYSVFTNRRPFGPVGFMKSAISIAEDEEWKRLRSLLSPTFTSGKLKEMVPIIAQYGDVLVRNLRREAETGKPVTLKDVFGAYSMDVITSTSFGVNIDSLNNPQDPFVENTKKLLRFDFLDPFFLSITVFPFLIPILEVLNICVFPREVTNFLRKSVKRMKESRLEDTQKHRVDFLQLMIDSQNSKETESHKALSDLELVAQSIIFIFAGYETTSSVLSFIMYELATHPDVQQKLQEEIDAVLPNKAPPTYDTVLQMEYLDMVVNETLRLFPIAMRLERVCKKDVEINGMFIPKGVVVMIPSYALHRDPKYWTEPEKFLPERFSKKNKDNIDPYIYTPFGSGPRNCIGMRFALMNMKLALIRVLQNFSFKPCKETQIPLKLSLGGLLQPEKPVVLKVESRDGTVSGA
The mark [7] stands for this setting: all participants, after HCQ intake (± pantoprazole).
The mark [8] stands for this setting: pantoprazole subgroup, HCQ plus pantoprazole.
[9] abbreviates: after 8-day course of 400 mg HCQ twice daily, seven healthy volunteers.

“Also recorded” adds a separate entry of the source. Like-named read-outs stand apart in the source and are kept apart here.

Consider `OCc1ncc2n1-c1ccc(Cl)cc1C(c1ccccc1F)=NC2` [1-OH-midazolam, 1-hydroxy-midazolam], for which the “Increase of 1-OH-midazolam AUC2–4 h vs baseline” value in the data set on CYP3A (setting [7]) is 17%; in the data set with CYP3A (setting [8]), 17.5%.

As to `CCN(CCO)CCCC(C)Nc1ccnc2cc(Cl)ccc12` (stereo not shown) [HCQ, hydroxychloroquine], the “Inhibition of CYP3A metabolism in vivo” value with CYP3A (single 400 mg HCQ, short term, midazolam probe) was “did not inhibit”. The “CYP2D6 inhibition in healthy volunteers” value in the data set with CYP2D6 [1] (interaction with metoprolol and dextromethorphan) was “weakly inhibits CYP2D6”. Further, in [2], the “Time until steady state is reached” value is listed as 4 months. In addition, the “Inhibition of CYP2D6 metabolism in vivo” value in the data set on CYP2D6 [3] was “not a clinically relevant CYP2D6 inhibitor; also recorded: did not inhibit”. Besides, the “CYP2D6 inhibition in vitro” value in the data set with CYP2D6 [4] is “competitively and reversibly inhibit CYP2D6 activity, albeit only mildly”. In addition, the “CYP3A4 inhibition in vitro by parent drug” value with CYP3A4 is “did not support the hypothesis that the parent drug HCQ inhibits CYP3A4 activity”.

For the compound `CCNCCCC(C)Nc1ccnc2cc(Cl)ccc12` (stereo not shown) [desethylchloroquine], the “CYP2D6 inhibition in vitro” value with CYP2D6 [4] was “competitively and reversibly inhibit CYP2D6 activity, albeit only mildly”. The “CYP3A4 inhibition in vitro” value in the data set with CYP3A4 was “time-dependent inhibitors of CYP3A4”.

With `CC(CCCNCCO)Nc1ccnc2cc(Cl)ccc12` (stereo not shown) [desethylhydroxychloroquine], the “CYP3A4 inhibition in vitro” value with CYP3A4 is “time-dependent inhibitors of CYP3A4”.

With `COc1ccc2c(c1)[C@]13CCCC[C@@H]1[C@H](C2)N(C)CC3` [dextromethorphan], in the data set with CYP2D6 [1] (after 8-day course of 400 mg HCQ twice daily), the “Change of urinary metabolic ratio of dextromethorphan” value is “did not show any significant change”.

As to `CC(CCCN)Nc1ccnc2cc(Cl)ccc12` (stereo not shown) [didesethylchloroquine], in the data set with CYP3A4, the “CYP3A4 inhibition in vitro” value was “time-dependent inhibitors of CYP3A4”.

Turning to `COCCc1ccc(OCC(O)CNC(C)C)cc1` (stereo not shown) [metoprolol], in the data set with CYP2D6 [1] (setting [9]), the “Increase of metoprolol AUC” value is given as 65% and the “Increase of metoprolol Cmax” value is on record as 72%.

In the case of `Cc1ncc2n1-c1ccc(Cl)cc1C(c1ccccc1F)=NC2` [midazolam], the “Increase of midazolam AUC2–4 h vs baseline” value with CYP3A (setting [7]) is given as 25%; in the data set on CYP3A (setting [8]), 46%. Also, in the data set with CYP3A (control subgroup, HCQ alone), the “Change of midazolam AUC2–4 h vs baseline” value is reported as “no change”. Also, the results for the “Midazolam/1-OH-midazolam AUC2–4 h ratio” value in the data set with CYP3A (after hydroxychloroquine plus pantoprazole) and in the data set with CYP3A (baseline) were 3.60 ± 1.56 and 3.03 ± 1.59, respectively. For the same compound, the “Delay of peak plasma concentration vs fasting state” value in [5] (oral standard dose 1 h after a meal) was 0.9 h. In data set [5] (therapeutic or microdoses), the Oral bioavailability entry was “approximately 25%”.

As for `COc1ccnc(C[S+]([O-])c2nc3ccc(OC(F)F)cc3[nH]2)c1OC` (stereo not shown) [pantoprazole], the “Local concentration in the gut” value in the data set on CYP3A (40 mg pantoprazole with approximately 200 ml of fluid, estimate) is on record as “exceeded 500 µM”. In addition, in data set [6], the “Time to peak concentrations after oral administration” value is 2 to 3 h and the Peak serum concentration is 2.5 µg/mL. In data set [6] (converted from µg/ml), the Peak serum concentration was 6.5 µM. In addition, the “Reduction of CYP3A activity” value at recombinant human CYP3A4 worked out at 75%. The “Inhibition of CYP3A4-mediated midazolam metabolism in vitro” value with CYP3A4 is given as “inhibits CYP3A4-mediated midazolam metabolism at relatively high concentrations”.
